We go through 1 molecule from ChEMBL document CHEMBL4346735, “Discovery and pharmacological evaluation of indole derivatives as potent and selective RORγt inverse agonist for multiple autoimmune conditions” (Bioorg Med Chem Lett, 2019).

Data set [1] can be described thus: Plasma protein binding in dog. The data set is classed as ADME, Canis lupus familiaris. Conditions: read-out: PPB.
The subject of data set [2] is Mus musculus. The data set is described as follows: Immunosuppressive activity in MOG (35 to 55 residues)/pertussis toxin-induced experimental allergic encephalomyelitis C57BL/6J mouse model assessed as reduction in disease severity score at 30 mg/kg, po bid measured at day 23 relative to dexamethasone. The data set is classed as functional. Conditions: 552 h.
A further data set concerns HepG2. The data set is described as follows: Cytotoxicity against human HepG2 cells.
The subject of data set [3] is Mus musculus. In words: Immunosuppressive activity in MOG (35 to 55 residues)/pertussis toxin-induced experimental allergic encephalomyelitis C57BL/6J mouse model assessed as reduction in GM-CSF gene expression in spinal cord at 30 mg/kg, po bid measured at day 23 post MOG immunization/pertusis immunization relative to control. Conditions: 552 h. The data set is classed as functional.

Data set [4] in a line: AUC (0 to 24 hrs) in mouse at 10 mg/kg, po. It counts as ADME, organism-based. The arrangement: dose 10 mg/kg, time < 24 hr, route oral. Conditions: in vivo.
Data set [5] addresses T1, Nuclear receptor ROR-gamma (Mus musculus, UniProt P51450).
T1 sequence (P51450 whole entry): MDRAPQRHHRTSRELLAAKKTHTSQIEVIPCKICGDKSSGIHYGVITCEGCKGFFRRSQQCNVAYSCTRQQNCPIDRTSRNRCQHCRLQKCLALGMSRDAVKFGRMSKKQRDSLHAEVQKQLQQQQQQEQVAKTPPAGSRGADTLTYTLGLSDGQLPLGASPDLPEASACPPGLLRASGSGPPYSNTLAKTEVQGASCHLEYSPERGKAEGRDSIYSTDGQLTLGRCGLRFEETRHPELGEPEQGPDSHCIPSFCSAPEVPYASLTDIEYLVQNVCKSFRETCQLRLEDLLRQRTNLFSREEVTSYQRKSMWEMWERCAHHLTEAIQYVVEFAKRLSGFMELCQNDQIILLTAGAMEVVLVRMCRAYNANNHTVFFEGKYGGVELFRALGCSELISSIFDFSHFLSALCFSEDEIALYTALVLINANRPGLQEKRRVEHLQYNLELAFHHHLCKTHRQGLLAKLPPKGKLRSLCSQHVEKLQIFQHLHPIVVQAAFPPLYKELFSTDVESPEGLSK
In words: Inverse agonist activity at RORgammat in mouse splenocytes derived naive T cells assessed as suppression of T cell differentiation to Th17 cells by measuring IL-17 secretion in presence of […]/anti-IFNgamma/TGFbeta/IL-6 for 6 days by ELISA. It counts as cell-based. On the technique in general: An ELISA detects its analyte on a solid surface through an enzyme-linked reagent.

Data set [6] deals with Mus musculus. In words: Immunosuppressive activity in MOG (35 to 55 residues)/pertussis toxin-induced experimental allergic encephalomyelitis C57BL/6J mouse model assessed as reduction in IL-17A gene expression in spinal cord at 30 mg/kg, po bid measured at day 19 post MOG immunization/pertusis immunization relative to control. The data set is classed as functional. To be noted: 456 h.

Data set [7] in a line: Tmax in mouse at 10 mg/kg, po. It counts as ADME, organism-based. Conditions: in vivo.
The nature of data set [8]: Volume of distribution at steady state in mouse at 3 mg/kg, iv. It counts as ADME, organism-based. Conditions: in vivo, read-out: Vdss.
A short description of data set [9]: Cytotoxicity against Balb/c mouse splenocytes assessed as cell viability in presence of anti-CD3/anti-CD28 measured after 24 hrs. To be noted: read-out: Activity. The data set is classed as cell-based, Splenocyte.
For data set [10], the system named is Mus musculus. The data set is described as follows: Immunosuppressive activity in MOG (35 to 55 residues)/pertussis toxin-induced experimental allergic encephalomyelitis C57BL/6J mouse model assessed as reduction in disease severity score at 3 mg/kg, po bid measured at day 23 relative to dexamethasone. The data set is classed as functional. To be noted: 552 h.

Data set [11] in a line: Metabolic stability in rat liver microsomes assessed as parent compound remaining at 1 uM preincubated for 5 mins followed by NADPH addition after 30 mins by LC-MS/MS analysis. It counts as ADME, Microsome. Conditions: read-out: Stability.
Data set [12] deals with Mus musculus. In words: Inhibition of anti-CD3-induced IL-17A level in Balb/c mouse plasma at 30 mg/kg, po treated prior to stimulation with anti-CD3 for 3 hrs relative to control. It counts as functional.
A short description of data set [13]: Mutagenicity in Salmonella typhimurium by mini Ames test. The data set is classed as toxicity. To be noted: salmonella enterica subsp. enterica serovar typhimurium. (The Ames test detects mutagens through reverse mutation in bacteria.)
The nature of data set [14]: AUC in mouse brain at 10 mg/kg, po. It counts as ADME, organism-based.
Data set [15] in a line: Metabolic stability in simulated gastric fluid assessed as compound remaining after 15 mins. The data set is classed as ADME. Conditions: read-out: Stability.
Data set [16] in a line: Metabolic stability in dog hepatocytes assessed as parent compound remaining after 60 mins. It counts as ADME, cell-based, Canis lupus familiaris, Hepatocyte. Conditions: read-out: Stability.
The test system of data set [17] is Mus musculus. The data set is described as follows: Inhibition of anti-CD3-induced IL-17A level in Balb/c mouse plasma at 10 mg/kg, po treated prior to stimulation with anti-CD3 for 3 hrs relative to control. It counts as functional.
The nature of data set [18]: Transrepression of RORgammat in cytostim stimulated human whole blood assessed as suppression of IL-17 secretion incubated for 24 hrs. The data set is classed as tissue-based.
Data set [19] concerns Mus musculus. The data set is described as follows: Immunosuppressive activity in MOG (35 to 55 residues)/pertussis toxin-induced experimental allergic encephalomyelitis C57BL/6J mouse model assessed as reduction in IL-17A gene expression in spinal cord at 30 mg/kg, po bid measured at day 23 post MOG immunization/pertusis immunization relative to control. The data set is classed as functional. To be noted: 552 h.

Data set [20] can be described thus: Metabolic stability in rat hepatocytes assessed as parent compound remaining after 60 mins. It counts as ADME, cell-based, Hepatocyte. To be noted: read-out: Stability.

Where only a bound is given, the exact number is not on record here.

As to `O=C(O)c1ccc(-n2cc(C(=O)c3c(Cl)cccc3Cl)c3cccc(F)c32)cc1`, the fraction unbound in data set [1] is 0.01. The inhibition in vivo (as a rule, the drop in the measured response relative to a control, in per cent) at 30 mg/kg came out at 39% in the data set with Mus musculus [2]; 70% in the data set with Mus musculus [3]; 30% with Mus musculus [6]; 33% in the data set with Mus musculus [12]; 43% in the data set on Mus musculus [19]. For the same molecule, the IC50 – broadly, the midpoint of a concentration-inhibition curve – in the data set on HepG2 is greater than 50000 nM; in data set [5], 26 nM; in data set [18] it was 490 nM. Moreover, the AUC(0-t) – broadly, the area under the concentration-time curve up to a stated or last time point – at 24 h in data set [4] stood at 10.4 µM·h. Moreover, the Tmax (commonly the time from dosing to the highest level) in data set [7] was found to be 30 min. In data set [8], the Vd turned out to be 4.8 L/kg. In data set [9], the viability at 24 h is greater than 95%. Further, the inhibition in vivo at 3 mg/kg with Mus musculus [10] amounted to 25%. In addition, the remaining at 0.5 h, 1 µM in data set [11] worked out at 100%. In addition, the Activity result in [13] is recorded as “Non-Toxic”. Further, in data set [14], the area under the curve (AUC) (as a rule, the area under the concentration-time curve, a measure of exposure) was 0.29 µM·h. The remaining at […] in data set [15] was 84%. Moreover, the remaining at 1 h in [16] amounted to 51%; in data set [20], 57%. In addition, the inhibition in vivo at 10 mg/kg in the data set with Mus musculus [17] is 17%.
